Experimental data as given in BindingDB's records for doi:10.1021/ml100146z (2010).

Molecular target: Signal transducer and activator of transcription 3 (Homo sapiens, UniProt P40763)
Assay: Inhibition of STAT3 in human HeLa cells after 24 hrs by luciferase reporter gene assay

Chain of Signal transducer and activator of transcription 3 (P40763 whole entry): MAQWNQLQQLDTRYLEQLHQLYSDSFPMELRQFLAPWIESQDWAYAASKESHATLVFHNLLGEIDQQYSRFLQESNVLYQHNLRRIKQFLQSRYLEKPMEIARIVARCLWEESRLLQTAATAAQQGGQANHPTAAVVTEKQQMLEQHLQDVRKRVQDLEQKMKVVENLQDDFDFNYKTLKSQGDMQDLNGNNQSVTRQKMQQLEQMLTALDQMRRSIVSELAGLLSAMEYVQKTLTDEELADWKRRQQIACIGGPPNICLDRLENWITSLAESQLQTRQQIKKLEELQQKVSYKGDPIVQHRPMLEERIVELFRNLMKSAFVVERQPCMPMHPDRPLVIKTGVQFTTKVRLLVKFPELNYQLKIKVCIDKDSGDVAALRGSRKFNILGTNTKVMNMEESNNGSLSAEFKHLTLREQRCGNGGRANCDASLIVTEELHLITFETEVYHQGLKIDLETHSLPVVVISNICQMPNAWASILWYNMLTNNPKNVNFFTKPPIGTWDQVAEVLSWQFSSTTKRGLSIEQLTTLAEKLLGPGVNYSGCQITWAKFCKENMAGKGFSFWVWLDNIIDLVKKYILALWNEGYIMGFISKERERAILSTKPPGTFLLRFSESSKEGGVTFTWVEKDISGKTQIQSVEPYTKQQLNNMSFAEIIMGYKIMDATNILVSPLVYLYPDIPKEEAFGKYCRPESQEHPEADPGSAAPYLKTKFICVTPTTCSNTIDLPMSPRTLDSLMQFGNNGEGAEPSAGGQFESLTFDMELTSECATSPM

- IC50: 0.25 µM
Compound: O=C(Nc1ccc([N+](=O)[O-])cc1Cl)c1cc(Cl)ccc1O [5-chloro-N-(2-chloro-4-nitrophenyl)-2-hydroxybenzamide]
